Data taken from patent US10138255B2, “Piperazine derivatives as HIV protease inhibitors” (Merck Sharp & Dohme Corp., priority 2014, dated 2018).

These compounds were tested on HIV-1 (H9IIIB strain) (assay: Cell-Based HIV Infection Assay Using a Reporter (MT4-GFP cells)). Conditions: Human immunodeficiency virus 1, inflection point (IP) of viral growth inhibition; MT4-GFP cells infected with HIV-1 H9IIIB; 50% normal human serum; mean of at least two independent experiments; read-out: Cell Based IP (50% NHS).
In short: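 MT4-GFP cells (HIV LTR-driven GFP) bulk-infected with HIV-1 H9IIIB at low MOI for 24 h, washed, then exposed to compounds in RPMI plus 50% normal human serum, 0.4% DMSO. Infected cells counted at 24 and 48 h; R0 = 48 h/24 h ratio, inhibition normalised to DMSO and triple-drug control; IP from 4-parameter fit.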

Row | Compound | EC50 [nM]
1 | COC(=O)N[C@H](C(=O)N[C@H]1CCC[C@@H]1CC[C@H]1CN[C@@H]2CCCS(=O)(=O)N1C2)[C@@H](c1ccc(F)cc1)c1cc(F)cc(F)c1 [Example 56, methyl [(1S,2S)-2-(3,5-difluorophenyl)-1-{[(1S,2R)-2-{2-[(6R,9S)-2,2-dioxido-2-thia-1,7-diazabicyclo[4.3.1]dec-9-yl]ethyl}cyclopentyl]carbamoyl}-2-(4-fluorophenyl)ethyl]carbamate] | 24
2 | N[C@H](C(=O)N[C@H]1CCC[C@@H]1CC[C@H]1CN[C@@H]2CCCS(=O)(=O)N1C2)[C@@H](c1ccc(F)cc1)c1cc(F)cc(F)c1 [Example 57, (βS)-β-(3,5-difluorophenyl)-N-[(1S,2R)-2-{2-[(6R,9S)-2,2-dioxido-2-thia-1,7-diazabicyclo[4.3.1]dec-9-yl]ethyl}cyclopentyl]-4-fluoro-L-phenylalaninamide] | 27
3 | COC(=O)N[C@H](C(=O)N[C@H]1CCC[C@@H]1CC[C@H]1CN[C@@H]2CCCS(=O)(=O)N1C2)[C@@H](c1ccc(Cl)cc1)C1CCOCC1 [Example 58, methyl [(1S,2R)-2-(4-chlorophenyl)-1-{[(1S,2R)-2-{2-[(6R,9S)-2,2-dioxido-2-thia-1,7-diazabicyclo[4.3.1]dec-9-yl]ethyl}cyclopentyl]carbamoyl}-2-(tetrahydro-2H-pyran-4-yl)ethyl]carbamate] | 59
4 | N[C@H](C(=O)Nc1cccc(F)c1CCC1CNC2CCCS(=O)(=O)N1C2)[C@@H](c1ccc(F)cc1)c1ccc(C2CC2)cc1 (stereo partly drawn) [Example 59, (βR)-4-cyclopropyl-N-{2-[2-(2,2-dioxido-2-thia-1,7-diazabicyclo[4.3.1]dec-9-yl)ethyl]-3-fluorophenyl}-β-(4-fluorophenyl)-L-phenylalaninamide] | 16
5 | COC(=O)N[C@H](C(=O)Nc1cccc(F)c1CCC1CNC2CCCS(=O)(=O)N1C2)[C@@H](c1ccc(F)cc1)c1ccc(C2CC2)cc1 (stereo partly drawn) [Example 60, methyl [(1S,2R)-2-(4-cyclopropylphenyl)-1-({2-[2-(2,2-dioxido-2-thia-1,7-diazabicyclo[4.3.1]dec-9-yl)ethyl]-3-fluorophenyl}carbamoyl)-2-(4-fluorophenyl)ethyl]carbamate] | 9.9
6 | N[C@H](C(=O)Nc1cccc(F)c1CCC1CNC2CCCS(=O)(=O)N1C2)[C@H](c1ccc(F)cc1)C1CCC(F)(F)CC1 (stereo partly drawn) [Example 61, (βS)-β-(4,4-difluorocyclohexyl)-N-{2-[2-(2,2-dioxido-2-thia-1,7-diazabicyclo[4.3.1]dec-9-yl)ethyl]-3-fluorophenyl}-4-fluoro-L-phenylalaninamide] | 160
7 | COC(=O)N[C@H](C(=O)Nc1cccc(F)c1CCC1CNC2CCCS(=O)(=O)N1C2)[C@H](c1ccc(F)cc1)C1CCC(F)(F)CC1 (stereo partly drawn) [Example 62, methyl [(1S,2S)-2-(4,4-difluorocyclohexyl)-1-({2-[2-(2,2-dioxido-2-thia-1,7-diazabicyclo[4.3.1]dec-9-yl)ethyl]-3-fluorophenyl}carbamoyl)-2-(4-fluorophenyl)ethyl]carbamate] | 190
8 | COC(=O)N[C@H](C(=O)Nc1cccc(F)c1CCC1CNC2CCCS(=O)(=O)N1C2)[C@@H](c1ccc(F)cc1)c1cccc(C(F)(F)F)c1 (stereo partly drawn) [Example 63, methyl [(1S)-2-({2-[2-(2,2-dioxido-2-thia-1,7-diazabicyclo[4.3.1]dec-9-yl)ethyl]-3-fluorophenyl}amino)-1-{(S)-(4-fluorophenyl)[3-(trifluoromethyl)phenyl]methyl}-2-oxoethyl]carbamate] | 14
9 | N[C@H](C(=O)Nc1cccc(F)c1CCC1CNC2CCCS(=O)(=O)N1C2)[C@H](c1ccc(F)cc1)C1CC(F)(F)C1 (stereo partly drawn) [Example 64, (βS)-β-(3,3-difluorocyclobutyl)-N-{2-[2-(2,2-dioxido-2-thia-1,7-diazabicyclo[4.3.1]dec-9-yl)ethyl]-3-fluorophenyl}-4-fluoro-L-phenylalaninamide] | 260
10 | COC(=O)N[C@H](C(=O)Nc1cccc(F)c1CCC1CNC2CCCS(=O)(=O)N1C2)[C@H](c1ccc(F)cc1)C1CC(F)(F)C1 (stereo partly drawn) [Example 65, methyl [(1S,2S)-2-(3,3-difluorocyclobutyl)-1-({2-[2-(2,2-dioxido-2-thia-1,7-diazabicyclo[4.3.1]dec-9-yl)ethyl]-3-fluorophenyl}carbamoyl)-2-(4-fluorophenyl)ethyl]carbamate] | 47
11 | COc1ccc([C@H](c2ccc(F)c(F)c2)[C@H](N)C(=O)Nc2cccc(F)c2CCC2CNC3CCCS(=O)(=O)N2C3)cn1 (stereo partly drawn) [Example 66, (βS)-N-{2-[2-(2,2-dioxido-2-thia-1,7-diazabicyclo[4.3.1]dec-9-yl)ethyl]-3-fluorophenyl}-3,4-difluoro-β-(6-methoxypyridin-3-yl)-L-phenylalaninamide] | 8.2
12 | COc1cc([C@H](c2ccc(Cl)c(F)c2)[C@H](N)C(=O)Nc2cccc(F)c2CCC2CNC3CCCS(=O)(=O)N2C3)ccn1 (stereo partly drawn) [Example 67, (βR)-4-chloro-N-{2-[2-(2,2-dioxido-2-thia-1,7-diazabicyclo[4.3.1]dec-9-yl)ethyl]-3-fluorophenyl}-3-fluoro-β-(2-methoxypyridin-4-yl)-L-phenylalaninamide] | 4.5
13 | COC(=O)N[C@H](C(=O)Nc1cccc(F)c1CCC1CNC2CCCS(=O)(=O)N1C2)[C@H](c1ccnc(OC)c1)c1ccc(Cl)c(F)c1 (stereo partly drawn) [Example 69, methyl [(1S,2R)-2-(4-chloro-3-fluorophenyl)-1-({2-[2-(2,2-dioxido-2-thia-1,7-diazabicyclo[4.3.1]dec-9-yl)ethyl]-3-fluorophenyl}carbamoyl)-2-(2-methoxypyridin-4-yl)ethyl]carbamate] | 13
14 | CCC(CC)[C@H](c1ccc(Cl)cc1)[C@H](N)C(=O)Nc1cccc(F)c1CCC1CNC2CCCS(=O)(=O)N1C2 (stereo partly drawn) [Example 70, (βR)-4-chloro-N-{2-[2-(2,2-dioxido-2-thia-1,7-diazabicyclo[4.3.1]dec-9-yl)ethyl]-3-fluorophenyl}-β-(1-ethylpropyl)-L-phenylalaninamide] | 49
15 | CCC(CC)[C@H](c1ccc(Cl)cc1)[C@H](NC(=O)OC)C(=O)Nc1cccc(F)c1CCC1CNC2CCCS(=O)(=O)N1C2 (stereo partly drawn) [Example 71, methyl [(1S,2R)-2-(4-chlorophenyl)-1-({2-[2-(2,2-dioxido-2-thia-1,7-diazabicyclo[4.3.1]dec-9-yl)ethyl]-3-fluorophenyl}carbamoyl)-3-ethylpentyl]carbamate] | 41
16 | N[C@H](C(=O)Nc1cccc(F)c1CCC1CNC2CCCS(=O)(=O)N1C2)[C@H](c1cncc(Cl)c1)c1ccc(Cl)c(F)c1 (stereo partly drawn) [Example 72, (βS)-4-chloro-β-(5-chloropyridin-3-yl)-N-{2-[2-(2,2-dioxido-2-thia-1,7-diazabicyclo[4.3.1]dec-9-yl)ethyl]-3-fluorophenyl}-3-fluoro-L-phenylalaninamide] | 5.1
17 | COC(=O)N[C@H](C(=O)Nc1cccc(F)c1CCC1CNC2CCCS(=O)(=O)N1C2)[C@H](c1cncc(Cl)c1)c1ccc(Cl)c(F)c1 (stereo partly drawn) [Example 73, methyl [(1S,2S)-2-(4-chloro-3-fluorophenyl)-2-(5-chloropyridin-3-yl)-1-({2-[2-(2,2-dioxido-2-thia-1,7-diazabicyclo[4.3.1]dec-9-yl)ethyl]-3-fluorophenyl}carbamoyl)ethyl]carbamate] | 18
18 | N[C@H](C(=O)Nc1cccc(F)c1CCC1CNC2CCCS(=O)(=O)N1C2)[C@H](CCC1CCOCC1)c1ccc(Cl)c(F)c1 (stereo partly drawn) [Example 74, (βR)-4-chloro-N-{2-[2-(2,2-dioxido-2-thia-1,7-diazabicyclo[4.3.1]dec-9-yl)ethyl]-3-fluorophenyl}-3-fluoro-β-[2-(tetrahydro-2H-pyran-4-yl)ethyl]-L-phenylalaninamide] | 151
19 | O=C(C[C@@H](c1ccc(Cl)c(F)c1)N1CCOCC1)N[C@H]1CCC[C@@H]1CC[C@H]1CN[C@@H]2CCCS(=O)(=O)N1C2 [Example 75, (3S)-3-(4-chloro-3-fluorophenyl)-N-[(1S,2R)-2-{2-[(6R,9S)-2,2-dioxido-2-thia-1,7-diazabicyclo[4.3.1]dec-9-yl]ethyl}cyclopentyl]-3-morpholin-4-ylpropanamide] | 110
20 | N[C@H](C(=O)N[C@H]1CCC[C@@H]1CC[C@H]1CN[C@@H]2CCCS(=O)(=O)N1C2)[C@H](c1cncc(C(F)(F)F)c1)c1ccc(Cl)c(F)c1 [Example 76, (βS)-4-chloro-N-[(1S,2R)-2-{2-[(6R,9S)-2,2-dioxido-2-thia-1,7-diazabicyclo[4.3.1]dec-9-yl]ethyl}cyclopentyl]-3-fluoro-β-[5-(trifluoromethyl)pyridin-3-yl]-L-phenylalaninamide] | 30
21 | COC(=O)N[C@H](C(=O)N[C@H]1CCC[C@@H]1CC[C@H]1CN[C@@H]2CCCS(=O)(=O)N1C2)[C@H](c1cncc(F)c1)c1ccc(Cl)c(F)c1 [Example 77, methyl [(1S,2S)-2-(4-chloro-3-fluorophenyl)-1-{[(1S,2R)-2-{2-[(6R,9S)-2,2-dioxido-2-thia-1,7-diazabicyclo[4.3.1]dec-9-yl]ethyl}cyclopentyl]carbamoyl}-2-(5-fluoropyridin-3-yl)ethyl]carbamate] | 57
22 | COC(=O)N[C@H](C(=O)N[C@H]1CCC[C@@H]1CC[C@H]1CN[C@@H]2CCCS(=O)(=O)N1C2)[C@@H](c1ccc(Cl)cc1)c1ccc(OC)nc1 [Example 78, methyl [(1S,2S)-2-(4-chlorophenyl)-1-{[(1S,2R)-2-{2-[(1S,2S)-2,2-dioxido-2-thia-1,7-diazabicyclo[4.3.1]dec-9-yl]ethyl}cyclopentyl]carbamoyl}-2-(6-methoxypyridin-3-yl)ethyl]carbamate] | 38
23 | COC(=O)N[C@H](C(=O)N[C@H]1CCC[C@@H]1CC[C@H]1CN[C@@H]2CCCS(=O)(=O)N1C2)[C@H](c1cncc(C(F)(F)F)c1)c1ccc(Cl)c(F)c1 [Example 79, methyl {(1S,2S)-2-(4-chloro-3-fluorophenyl)-1-{[(1S,2R)-2-{2-[(6R,9S)-2,2-dioxido-2-thia-1,7-diazabicyclo[4.3.1]dec-9-yl]ethyl}cyclopentyl]carbamoyl}-2-[5-(trifluoromethyl)pyridin-3-yl]ethyl}carbamate] | 31
